# Test results published in patent US7666868B2, “N-sulphonylpyrroles and their use as histone deacetylase inhibitors” (4SC AG, priority 2005, dated 2010).
# Columns and labels:
# [1] = test system: HeLa cervical carcinoma cell line; test: Cellular cytotoxicity assay (Alamar Blue / Resazurin); format: cell-based; settings: Homo sapiens; HeLa cells, 48 hours incubation; read-out: IC50 (anti-proliferative/cytotoxic potency)
# Description: The anti-proliferative activity of the histone deacetylase inhibitory compounds as described herein, is evaluated with the HeLa cervical carcinoma cell line (ATCC CCL2) using the Alamar Blue (Resazurin) cell viability assay (O'Brien et al. Eur J Biochem 267, 5421-5426, 2000). Resazurin is reduced to the fluorescent resorufin by cellular dehydrogenase activity, correlating with viable, proliferating cells. Test compounds are dissolved as 10 mM solutions in dimethylsulfoxide (DMSO) and subsequently diluted in semi-logarithmic steps. HeLa cells are seeded into 96 well flat bottom plates at a density of 3000 cells per well in a volume of 200 μl per well. 24 hours after seeding 1 μl each of the compound dilutions are added into each well of the 96 Well plate. Each compound dilution is tested as quadruplicates. Wells containing untreated control cells are filled with 200 μl DMEM medium containing 0.5% v:v DMSO. The cells are then incubated with the substances for 48 hours at 37° C. in a humidified atmosphere containing 5% carbon dioxide. To determine the viability of the cells, 20 μl of an Resazurin solution (Sigma; 90 mg/l) are added. After 4 hours incubation at 37° C. the fluorescence is measured at an extinction of 544 nm and an emission of 590 nm. For the calculation of the cell viability the emission value from untreated cells is set as 100% viability and the emission rates of treated cells are set in relation to the values of untreated cells. Viabilites are expressed as % values. The corresponding IC50 values of the compounds for cytotoxic activity are determined from the concentration-effect curves by means of non-linear regression.
# [2] = test system: histone H3 acetylation (lysine 9+14) in HeLa cervical carcinoma cells; test: Cellular histone H3 acetylation assay; format: cell-based; settings: Homo sapiens, 24 h incubation with compound, read-out: EC50 (histone H3 acetylating cellular potency)
# Excerpt: To assess the cellular efficacy of an histone deactylase inhibitor in vitro, an assay is set up in black clear-bottom 96-well plates and optimized for use on the Cellomics “ArrayScan II” platform for a quantitative calculation of histone acetylation. The protocol uses a polyclonal rabbit antibody, specifically binding to acetylated lysine 9+14 of human histone H3 on fixed cells with an Alexa Fluor 488 labeled goat ant rabbit-IgG used for counterstaining (modified from Braunger et al. MCR annual conference 2003, Abstract 4556).
# 5×10^3 HeLa cervical carcinoma cells/well (ATCC CCL-2) in 200 μl Dulbecco's modified Eagle's medium (DMEM) containing 10% fetal calf serum are seeded at day 1 in Packard view plates and incubated for 24 h under standard cell culture conditions. On day 2, 2 μl test compound (100× final concentration) is added and incubation continued for further 24 h. On day 3, the culture medium is discarded and attached cells fixed for 15 min at room temperature by addition of 100 μl fixation buffer (3.7% v:v formaldehyde in phosphate buffered saline/PBS). After discarding the fixation buffer and one wash with PBS, cells are permeabilized at room temperature by addition of 100 μl/well permeabilization buffer (30.8 mM NaCl, 0.54 mM Na2HPO4, 0.31 mM KH2PO4, 5% v:v Triton X-100) for 15 min at room temperature. After discarding the permeabilization buffer and washing twice with 100 μl/well blocking solution (PBS with 0.05% v:v Tween 20 and 5% w:v milk powder) at room temperature, the 1st antibody (anti-K9+14 histone H3 antibody, Calbiochem No. 382158) in blocking solution (50 μl/well) is added. After incubation for 1 h at 37° C., the wells are washed twice at room temperature with 100 μl/well blocking solution before addition of the 2nd antibody (goat-anti-rabbit Alexa Fluor 488; MoBiTec No. A-11008) in blocking solution (50 μl/well). After further incubation for 1 h at 37° C., wells are washed twice with 100 μl/well blocking solution room temperature. Finally, 100 d/well PBS are added and image analysis performed on the Cellomics “ArrayScan II” platform. For calculation of EC50 values, the nuclear fluorescence in cells treated with and without a reference HDAC inhibitor (eg NVP-LBH-589) are taken as a positive and negative control. For EC50 determination, the percentage of positive cells is determined and EC50 calculation done from concentration-effect curves by means of non-linear regression.
SMILES,IC50 [1] [µM],EC50 [2] [µM],melting point [°C]
"Nc1ccc(-c2ccc(S(=O)(=O)n3ccc(C=CC(=O)NO)c3)cc2)cn1 [Compound 4, (E)-3-∴1-[4-(6-Amino-pyridin-3-yl)-benzenesulfonyl]-1H-pyrrol-3-yl)-N-hydroxy-acrylamide]",0.078 to 2.3,0.28 to 5.3,–
"Nc1ccccc1NC(=O)/C=C/c1ccn(S(=O)(=O)C2(CN3CCOCC3)C=CC(c3ccccc3)=CC2)c1 (stereo not shown) [Compound 107, (E)-N-(2-Amino-phenyl)-3-[1-(4-morpholin-4-ylmethyl-biphenyl-4-sulfonyl)-1H-pyrrol-3-yl]-acrylamide]",–,–,196 to 201
"Cn1cc(-c2ccc(S(=O)(=O)n3ccc(/C=C/C(=O)Nc4ccccc4N)c3)cc2)cn1 [Compound 7, (E)-N-(2-Amino-phenyl)-3-{1-[4-(1-methyl-1H-pyrazol-4-yl)-benzenesulfonyl]-1H-pyrrol-3-yl}-acrylamide]",0.078 to 2.3,0.28 to 5.3,–
"COc1ccc(-c2ccc(S(=O)(=O)n3ccc(/C=C/C(=O)NO)c3)cc2)cn1 [Compound 3, (E)-N-Hydroxy-3-{1-[4-(6-methoxy-pyridin-3-yl)-benzenesulfonyl]-1H-pyrrol-3-yl}-acrylamide]",0.078 to 2.3,0.28 to 5.3,–
"CN(C)CC1(S(=O)(=O)n2ccc(/C=C/C(=O)Nc3ccccc3N)c2)C=CC(c2ccccc2)=CC1 (stereo not shown) [Compound 47, (E)-N-(2-Amino-phenyl)-3-[1-(4-dimethylaminomethyl-biphenyl-4-sulfonyl)-1H-pyrrol-3-yl]-acrylamide]",–,–,211 to 216
"Cn1cc(-c2cccc(S(=O)(=O)n3ccc(/C=C/C(=O)Nc4ccccc4N)c3)c2)cn1 [Compound 15, (E)-N-(2-Amino-phenyl)-3-{1-[3-(1-methyl-1H-pyrazol-4-yl)-benzenesulfonyl]-1H-pyrrol-3-yl}-acrylamide]",–,–,193 to 197
"O=C(/C=C/c1ccn(S(=O)(=O)c2cc(-c3ccccc3)ccc2OCCCN2CCOCC2)c1)NO [Compound 38, (E)-N-Hydroxy-3-{1-[4-(3-morpholin-4-yl-propoxy)-biphenyl-3-sulfonyl]-1H-pyrrol-3-yl}-acrylamide]",–,0.027 to 4.4,167 to 172
"Cn1cc(-c2ccc(S(=O)(=O)n3ccc(/C=C/C(=O)NO)c3)cc2)cn1 [Compound 2, (E)-N-Hydroxy-3-{1-[4-(1-methyl-1H-pyrazol-4-yl)-benzenesulfonyl]-1H-pyrrol-3-yl}-acrylamide]",0.078 to 2.3,0.28 to 5.3,–
"Nc1ccc(-c2ccc(S(=O)(=O)n3ccc(/C=C/C(=O)Nc4ccccc4N)c3)cc2)cn1 [Compound 6, (E)-N-(2-Amino-phenyl)-3-{1-[4-(6-amino-pyridin-3-yl)-benzenesulfonyl]-1H-pyrrol-3-yl}-acrylamide]",0.078 to 2.3,0.28 to 5.3,–
"Cn1ccc2cc(-c3ccc(S(=O)(=O)n4ccc(/C=C/C(=O)NO)c4)cc3)ccc21 [Compound 1, (E)-N-Hydroxy-3-{1-[4-(1-methyl-1H-indol-5-yl)-benzenesulfonyl]-1H-pyrrol-3-yl}-acrylamide]",0.078 to 2.3,0.28 to 5.3,–
"COc1ccc(-c2ccc(S(=O)(=O)n3ccc(/C=C/C(=O)Nc4ccccc4N)c3)cc2)cn1 [Compound 5, (E)-N-(2-Amino-phenyl)-3-{1-[4-(6-methoxy-pyridin-3-yl)-benzenesulfonyl]-1H-pyrrol-3-yl}-acrylamide]",0.078 to 2.3,0.28 to 5.3,–
"O=C(/C=C/c1ccn(S(=O)(=O)c2ccc(-c3ccc(OCCCN4CCOCC4)cc3)s2)c1)NO [Compound 57, (E)-N-Hydroxy-3-(1-{5-[4-(3-morpholin-4-yl-propoxy)-phenyl]-thiophene-2-sulfonyl}-1H-pyrrol-3-yl)-acrylamide]",–,0.027 to 4.4,–
"O=C(/C=C/c1ccn(S(=O)(=O)c2cccc(-c3ccc(OCCN4CCCC4)cc3)c2)c1)NO [Compound 43, (E)-N-Hydroxy-3-{1-[4′-(2-pyrrolidin-1-yl-ethoxy)-biphenyl-3-sulfonyl]-1H-pyrrol-3-yl}-acrylamide]",–,0.027 to 4.4,–
"CS(=O)(=O)Nc1ccccc1-c1ccc(S(=O)(=O)n2ccc(/C=C/C(=O)NO)c2)cc1 [Compound 21, (E)-N-Hydroxy-3-[1-(2′-methanesulfonylamino-biphenyl-4-sulfonyl)-1H-pyrrol-3-yl]-acrylamide]",–,0.027 to 4.4,–
"CS(=O)(=O)Nc1cccc(-c2ccc(S(=O)(=O)n3ccc(/C=C/C(=O)Nc4ccccc4N)c3)cc2)c1 [Compound 59, (E)-N-(2-Amino-phenyl)-3-[1-(3′-methanesulfonylamino-biphenyl-4-sulfonyl)-1H-pyrrol-3-yl]-acrylamide]",–,0.027 to 4.4,–
"O=C(/C=C/c1ccn(S(=O)(=O)c2cc(-c3ccccc3)ccc2CCN2CCOCC2)c1)NO [Compound 16, (E)-N-Hydroxy-3-{1-[4-(2-morpholin-4-yl-ethyl)-biphenyl-3-sulfonyl]-1H-pyrrol-3-yl}-acrylamide]",–,0.027 to 4.4,–
"CN1CCN(Cc2ccc(-c3cccc(S(=O)(=O)n4ccc(/C=C/C(=O)NO)c4)c3)cc2)CC1 [Compound 62, (E)-N-Hydroxy-3-{1-[4′-(4-methyl-piperazin-1-ylmethyl)-biphenyl-3-sulfonyl]-1H-pyrrol-3-yl}-acrylamide]",–,0.027 to 4.4,–
"CN(C)Cc1ccccc1-c1ccc(S(=O)(=O)n2ccc(/C=C/C(=O)NO)c2)cc1 [Compound 27, (E)-3-[1-(2′-Dimethylaminomethyl-biphenyl-4-sulfonyl)-1H-pyrrol-3-yl]-N-hydroxy-acrylamide]",–,0.027 to 4.4,–
"NCC1(S(=O)(=O)n2ccc(/C=C/C(=O)Nc3ccccc3N)c2)C=CC(c2ccccc2)=CC1 (stereo not shown) [Compound 93, (E)-3-[1-(4-Aminomethyl-biphenyl-4-sulfonyl)-1H-pyrrol-3-yl]-N-(2-amino-phenyl)-acrylamide]",–,–,278 to 280
"CS(=O)(=O)Nc1ccc(-c2ccc(S(=O)(=O)n3ccc(/C=C/C(=O)NO)c3)cc2)cc1 [Compound 23, (E)-N-Hydroxy-3-[1-(4′-methanesulfonylamino-biphenyl-4-sulfonyl)-1H-pyrrol-3-yl]-acrylamide]",–,0.027 to 4.4,–
"O=C(/C=C/c1ccn(S(=O)(=O)c2cc(-c3ccccc3)ccc2CNC2CC2)c1)NO [Compound 63, (E)-3-[1-(4-Cyclopropylaminomethyl-biphenyl-3-sulfonyl)-1H-pyrrol-3-yl]-N-hydroxy-acrylamide]",–,0.027 to 4.4,118 to 119
"CN(C)Cc1ccc(-c2cccc(S(=O)(=O)n3ccc(/C=C/C(=O)NO)c3)c2)cc1 [Compound 37, (E)-3-[1-(4′-Dimethylaminomethyl-biphenyl-3-sulfonyl)-1H-pyrrol-3-yl]-N-hydroxy-acrylamide]",–,0.027 to 4.4,–
"O=C(/C=C/c1ccn(S(=O)(=O)c2ccc(-c3ccc(CCN4CCOCC4)cc3)cc2)c1)NO [Compound 8, (E)-N-Hydroxy-3-{1-[4′-(2-morpholin-4-yl-ethyl)-biphenyl-4-sulfonyl]-1H-pyrrol-3-yl}-acrylamide]",–,0.027 to 4.4,–
"Cc1ccc(S(=O)(=O)NC2(S(=O)(=O)n3ccc(/C=C/C(=O)NO)c3)C=CC(c3ccccc3)=CC2)cc1 (stereo not shown) [Compound 29, (E)-N-Hydroxy-3-{1-[4-(toluene-4-sulfonylamino)-biphenyl-4-sulfonyl]-1H-pyrrol-3-yl}-acrylamide]",–,–,119 to 126
"CN1CCN(c2cc(-c3ccc(S(=O)(=O)n4ccc(/C=C/C(=O)NO)c4)s3)ccn2)CC1 [Compound 42, (E)-N-Hydroxy-3-(1-{5-[2-(4-methyl-piperazin-1-yl)-pyridin-4-yl]-thiophene-2-sulfonyl}-1H-pyrrol-3-yl)-acrylamide]",–,0.027 to 4.4,–
